# According to patent US4766114A, “Tricyclic compound called 5-((3-chloro-6-methyl-5,5-dioxo-6,11-dihydro-dibenzo (c,f) (1,2)thiazepin-11-yl)-amino) pentanoic acid” (ADIR Et Compagnie, priority 1986, dated 1988):
# Read-outs that look alike come from different tables or passages of the source.
# Legend:
# [1] = system: reserpine-induced ptosis in the mouse; experiment: Effects on reserpine-induced ptosis in the mouse; assay type: in vivo, mouse (male NMRI); conditions: 25 mg.kg^-1 IP, reserpine 2 mg.kg^-1 IV
# Method: This experiment was carried out on groups of 20 male NMRI mice (IFFA-CREDO), with an average weight of 20±2 g. […] GOURET et al., in J. Pharmacol., 1977, 8, (3) p. 333-350.
# One hour after the injection of the reserpine, the animals were placed on a 5 cm×5 cm square, wood platform for 20 seconds. Ptosis was considered to be positive if the animal's eyes remained shut during the 20 seconds after it was placed on the platform. On the other hand, the animal was considered to be protected if the eyes were not completely closed during the 20 seconds following the moment when it was placed on the platform.
# [2] = system: reserpine-induced hypothermia in the mouse; experiment: Effects on reserpine-induced hypothermia in the mouse; assay type: in vivo, mouse (NMRI); conditions: 50 mg.kg^-1 IP
# Method: This study was carried out on experimental groups of 10 NMRI mice (IFFA-CREDO) fasted for 18 hours. […] One hour later, all the animals were given an intraperitoneal injection of 2 mg.kg^-1 of reserpine. Hypothermia was evaluated 4 hours after the injection of reserpine by measuring the rectal temperature using an electric thermometer.
# [3] = system: tetrabenazine-induced ptosis in the mouse; experiment: Effects on tetrabenazine-induced ptosis in the mouse; assay type: in vivo, mouse (male CD)
# Method: Male CD mice (Charles River), of average weight 23 g, were distributed in groups of 12 animals. […] The dose of products tested was 25 mg.kg^-1. The animals were observed individually 5, 25, 35 and 55 minutes after the injection of the tetrabenazine and the intensity of the ptosis was evaluated using a 0 to 4 rating scale.
# [4] = system: aggressivity of isolated mice; experiment: Effects on the aggressivity of isolated mice; assay type: in vivo, mouse (male CD); conditions: for % OF PROTECTED COUPLES (no attack) / MEAN NUMBER OF ATTACKS ± SD: 30 minutes before test; for % OF PROTECTED COUPLES (no attack): 10 couples; for MEAN NUMBER OF ATTACKS ± SD: 3 minute test
# Method: The male CD mice (Charles RIVER) used in this study were housed in small (18×10×10 cm) individual cages with the walls painted black, with one mouse per cage, for several months, at a constant temperature of 21° C. and in a light-darkness cycle of 12 hours. The average weight of the mice at the time of the study was 45 g.
# Each experimental group comprised 10 couples of mice previously selected for their aggressivity. The aggressivity test was carried out on non-fasting animals. The "intruding" mouse of each couple was placed in the cage containing the other mouse for a 3 minute period.
# The product was administered by the intraperitoneal route, 30 minutes before the test.
# antidepressant activity [5] = experiment: Antidepressant activity (standard pharmacological tests); assay type: in vivo
# Excerpt: The standard pharmacological tests used to evaluate the antidepressant activity of new chemical compounds, described, in particular, in Enna S. J. et al. "Antidepressants: Neurochemical Behavioral, and Clinical Perspectives" Raven Press N.Y. 1981, p.
# antidepressant activity [6] = conditions: French Pat. No. 71.32197; cited from earlier work
# [7] = 20 mg.kg^-1 IP, controls 0%, S = statistically significant change
structure (smiles),measurement,setting,value
"CN1c2ccccc2C(NCCCCC(=O)O)c2ccc(Cl)cc2S1(=O)=O (stereo not shown) [compound of the formula I, 5-[(3-chloro-6-methyl-5,5-dioxo-6,11-dihydro-dibenzo(c,f)(1,2)thiazepin-11-yl)-amino]pentanoic acid]",antagonism of reserpine-induced ptosis (in words),[1],much more active
same,animals protected from ptosis,[1]; 20 male NMRI mice per group,53%
same,antagonism of reserpine-induced hypothermia (in words),[2],much higher
same,FINAL TEMPERATURES MEAN ± SD,"[2]; rectal temperature 4 hours after reserpine 2 mg.kg^-1 IP, controls 24.7 ± 0.88",30.9 ± 3.7
same,activity against tetrabenazine-induced ptosis compared with TAHA (in words),[3]; 25 mg.kg^-1 IP,much greater and long-lasting activity than TAHA
same,"% controls (% change of the mean ptosis scores in comparison with the controls), 5 MINUTES","[3]; 25 mg.kg^-1 IP, 5 minutes after tetrabenazine 20 mg.kg^-1",-69%
same,"MEAN VALUE OF THE PTOSIS INTENSITY SCORE ± SD, 5 MINUTES","[3]; 25 mg.kg^-1 IP, 5 minutes after tetrabenazine 20 mg.kg^-1, 0 to 4 scale, controls 1.33 ± 0.65",0.42 ± 0.51
same,"% controls (% change of the mean ptosis scores in comparison with the controls), 25 MINUTES","[3]; 25 mg.kg^-1 IP, 25 minutes after tetrabenazine 20 mg.kg^-1",-32%
same,"% controls (% change of the mean ptosis scores in comparison with the controls), 35 MINUTES","[3]; 25 mg.kg^-1 IP, 35 minutes after tetrabenazine 20 mg.kg^-1",-35%
same,"MEAN VALUE OF THE PTOSIS INTENSITY SCORE ± SD, 35 MINUTES","[3]; 25 mg.kg^-1 IP, 35 minutes after tetrabenazine 20 mg.kg^-1, 0 to 4 scale, controls 2.83 ± 0.58",1.83 ± 0.39
same,"MEAN VALUE OF THE PTOSIS INTENSITY SCORE ± SD, 55 MINUTES","[3]; 25 mg.kg^-1 IP, 55 minutes after tetrabenazine 20 mg.kg^-1, 0 to 4 scale, controls 3.08 ± 0.51",2.42 ± 0.67
same,"% controls (% change of the mean ptosis scores in comparison with the controls), 55 MINUTES","[3]; 25 mg.kg^-1 IP, 55 minutes after tetrabenazine 20 mg.kg^-1, NS = Non significant",-22%
same,"MEAN VALUE OF THE PTOSIS INTENSITY SCORE ± SD, 25 MINUTES","[3]; mouse, in vivo, ip",1.75 ± 0.45
same,% OF PROTECTED COUPLES (no attack),"[4]; 10 mg.kg^-1 IP, controls 10%",20%
same,MEAN NUMBER OF ATTACKS ± SD,"[4]; 10 mg.kg^-1 IP, water controls 6.7 ± 4.7 (ATAH), 5.4 ± 2.8 (formula I)",7.2 ± 5.9
same,anti-aggressive effect (in words),[4]; 20 mg.kg^-1 IP,clear anti-aggressive effect
same,% OF PROTECTED COUPLES (no attack),[4]; [7],60%
same,anti-aggressive activity compared with TAHA (in words),"[4]; isolated mice, IP",much greater than that of TAHA
same,antidepressant activity (in words),antidepressant activity [5],much greater antidepressant activity
same,antidepressant activity (in words),"antidepressant activity [5]; listed as 5-[(3-chloro-6-methyl-5,5-dioxo-6,11-dihydrodibenzo(c,f)(1,2)thiazepin-11-yl)-a",very potent antidepressant activity
"CN1c2ccccc2C(NCCCCCCC(=O)O)c2ccc(Cl)cc2S1(=O)=O (stereo not shown) [TAHA, 7-[(3-chloro-6-methyl-5,5-dioxo-6,11-dihydro-dibenzo(c,f)(1,2)thiazepin-11-yl)-amino]heptanoic acid, reference compound]",% OF PROTECTED COUPLES (no attack),"[4]; 10 mg.kg^-1 IP, controls 10%",10%
same,anti-aggressive effect (in words),[4]; 20 mg.kg^-1 IP,clear anti-aggressive effect
same,% OF PROTECTED COUPLES (no attack),[4]; [7],40%
same,MEAN NUMBER OF ATTACKS ± SD,"[4]; 20 mg.kg^-1 IP, water controls 8.3 ± 6.0",3.7 ± 4.9
same,antidepressant properties (in words),antidepressant activity [6],antidepressant properties
